# In patent US9669199B2, “Biosynchronous transdermal drug delivery for longevity, anti-aging, fatigue management, obesity, weight loss, weight management, delivery of nutraceuticals, and the treatment of hyperglycemia, alzheimer's disease, sleep disorders, parkinson's disease, aids, epilepsy, attention deficit disorder, …” (Chrono Therapeutics Inc., priority 2004, dated 2017):
# Like-named read-outs stand apart in the source and are kept apart here.
# How the values were obtained:
# [1] = in vivo; cited from earlier work
# rhesus monkeys = conditions: sleep deprivation; cited from earlier work
# [2] = tested on: humans subjected to simulated night shift work; conditions: cited from earlier work
# [3] = in vivo; cited from earlier work; remark: listed apart in the source
# [4] = tested on: children aged 7 to 15 with ADHD; conditions: cited from earlier work; for ADHD symptoms and global ratings: parent and clinician ratings, 9 weeks
# [5] = tested on: metastatic renal cell carcinoma; conditions: continuous infusion, 70% of the daily dose between 15:00 h and 21:00 h; cited from earlier work
# arthritis = conditions: night versus 8:00 am; cited from earlier work
# [6] = tested on: sleep-deprived F-117 pilots; conditions: 300 mg in three divided 100-mg doses; cited from earlier work
# helicopter pilots = conditions: 600 mg in three doses, 8 hours of sleep in an 88 hour period; cited from earlier work
# [7] = low, medium and high concentrations, 16 hours, 12 human subjects
# Experimental: The device, described herein, was tested on 12 healthy male volunteers for an open, three-periods, single center, dose-escalation study using nicotine as the model compound.
# [8] = human cadaver skin dermatomed to 0.5 mm, 10 cm^2, 100 mg/ml in ethanol/water 1/1, 200 ul doses, EVA membrane
# Experimental: The area of skin permeation was 10 cm^2. […] Each time, 200 µl of formulation was dispensed on a 10 cm^2 surface area of interface of diffusion, separated from the skin by the EVA membrane. […] Additionally, the dose quantity was strictly controlled and monitored. Drug flux samples were obtained using a flow-through Franz cell permeation system with samples collected every 15 minutes. Hourly time point samples were analyzed and recorded. Samples were analyzed by UV/Vis spectrophotometry.
# [9] = oral dosing with 5 mg or transdermally with 39 mg; cited from earlier work
# [10] = evening versus morning; cited from earlier work
# smoking = conditions: in vivo; cited from earlier work
smiles,measurement,setting,value
O=C(C[S+]([O-])C(c1ccccc1)c1ccccc1)NO (stereo not shown) [Adrafinil],half-life,[1],about 60 minutes
same,time to peak concentration,[1],about 60 minutes
O=C(c1ccc2nonc2c1)N1CCOCC1 [CX717],performance after receiving the drug,rhesus monkeys,performed faster and better
same,cognitive performance,[2],did not improve cognitive performance
CNCC[C@@H](Oc1ccccc1C)c1ccccc1 [atomoxetine],half-life average,[3],3.12 h
same,time of peak plasma concentration after dosing,[3],1 to 2 h
same,tolerability,[4]; in vivo,well tolerated
same,ADHD symptoms and global ratings,[4],associated with reductions in ADHD symptoms and improved global ratings
O=c1[nH]c(=O)n([C@H]2C[C@H](O)[C@@H](CO)O2)cc1F [fluorodeoxyuridine],objective response,[5],29%
COc1ccc2c(c1)c(CC(=O)O)c(C)n2C(=O)c1ccc(Cl)cc1 [indomethacin],efficacy and patient compliance by time of dosing,arthritis,better efficacy and patient compliance when dosed at night than when dosed at 8:00 am
COC(=O)C(c1ccccc1)C1CCCCN1 (stereo not shown) [methylphenidate],tolerability,"[4]; atomoxetine twice daily, methylphenidate 2 or 3 times daily",well tolerated
same,ADHD symptoms and global ratings,[4],associated with reductions in ADHD symptoms and improved global ratings
NC(=O)C[S+]([O-])C(c1ccccc1)c1ccccc1 (stereo not shown) [modafinil],flight control accuracy sustained to within percent of baseline levels,[6],about 27%
same,alertness of pilots,helicopter pilots,can be used to keep pilots alert
CN1CCCC1c1cccnc1 (stereo not shown) [nicotine],blood plasma concentration profile,[7],clear and distinct peaks and troughs of therapeutically effective and well-targeted blood plasma concentration levels
same,maximum transdermal flux value,[8],160 ng/cm^2/hr
CCN(CC)CC#CCOC(=O)C(O)(c1ccccc1)C1CCCCC1 (stereo not shown) [oxybutynin],mean maximum blood plasma concentration,[9],3 ng/mL
CCCC(CCC)C(=O)O [valproate],absorption by time of day,[10],absorb it more slowly and less efficiently when they take it in the evening than in the morning
c1cnc2cc3c(cc2n1)[C@@H]1CNC[C@H]3C1 [varenicline],chances of quitting smoking,smoking,can more than double the chances of quitting smoking
